Literature values, collected in US8905760B2, “Methods and systems for progressively treating and controlling oral periopathogens causing systemic inflammations” (priority 2008, dated 2014).
Where a name gives a salt, the structure may show the parent alone.

Conditions: IPT group: standard periodontal therapy with adjunctive local delivery of minocycline-HCl (Arestin); N=20; P<0.0001, t test

## CN(C)c1ccc(O)c2c1C[C@H]1C[C@H]3[C@H](N(C)C)C(O)=C(C(N)=O)C(=O)[C@@]3(O)C(O)=C1C2=O [minocycline-HCl]
  reduction of periodontal lesions after therapy (mean difference): 60±23
